The test system of series [1] is PARP. Description: PARP cleavage by immunoblot in MCF7 cells. It is filed as cell-based, human. As for the experimental part:
(§1) As a further measure of apoptosis, cleavage of PARP was next examined. This protein is cleaved by caspases and results in appearance of Mr 85,000 and Mr 24,000 fragments, the latter of which binds irreversibly to broken ends of DNA, which assures irreversibility of apoptosis. Both breast cancer cell lines were transfected with antisense p21 and random sequence ODNs and immunoblotted with PARP antibody. […] T47D (A) and MCF7 (B) cells were grown to confluence, serum starved for 24 hours, and lipofected with antisense p21 or control ODN at the concentrations indicated. cont refers to nontransfected cells, and lipofect refers to cells treated with lipofectin but no DNA. The cells were lysed, and equal protein quantities were electrophoresed and immunoblotted with PARP antibody. The degradation product of PARP (Mr 85,000) is indicated by an arrow. MAPK is a loading control; a positive PARP cleavage control is Jurkat whole cell lysate.
A general note: A western blot detects proteins with antibodies after separation by electrophoresis.

Another series concerns caspase-3. Description: Caspase-3 activity (CaspACE colorimetric assay) in T47D cells. The format is cell-based, human. The following applies: 200 to 400 nM. As for the experimental part:
Caspase-3 Activity: The CaspACE Assay System was used to measure the activity of caspase-3. After incubation under appropriate conditions, the cells were lysed in CaspACE lysis buffer, and protein concentration was determined by dye reagent protein assay (Bio-Rad, Hercules, Calif.). […] The lysates with equal protein amounts were incubated with DEVD-p-nitroaniline substrate for 4 hours at 37° C. The reaction products were detected at 405 nm using a PowerWave X automated plate reader (Bio-Tek Instruments).
As another confirmatory test for antisense p21 ODN-mediated apoptosis, caspase-3 activation was assessed. Members of the caspase family of proteases are essential components of an evolutionarily conserved cell death pathway in multicellular eukaryotes and play key roles in inflammation and apoptosis in mammalian cells. Caspase-3 has substrate specificity for the amino acid sequence DEVD (Asp-Glu-Val-Asp) and is inhibited by the tetrapeptide inhibitor Ac-DEVD-CHO; its catalytic activity was assessed colorimetrically using the labeled Ac-DEVD-pNA substrate. […] T47D cells were grown to confluence, serum starved for 24 hours, and lipofected with antisense p21 or control ODN at the concentrations indicated. Caspase-3 activity was assessed as described in “Capase-3 Activity” using a colorimetric method. […]

Series [2] deals with PARP. Briefly: PARP cleavage by immunoblot in T47D cells. The format is cell-based, human. As for the experimental part:
as §1

For the next series, the system named is p21^Waf1/Cip1. Briefly: p21 protein level by Western blot in A10 VSM cells. It is filed as cell-based, rat. The following applies: for p21 levels after ionizing radiation: 12 Gy, up to 4 hours. As to the method:
Western blots: Cells were grown to confluence in 6 cm culture dishes and serum deprived. After transfection and or treatment with appropriate agonist, the cells were washed with phosphate-buffered saline and lysed in lysis buffer and the supernatant was Western blotted as described (Weiss et al., 1998 Am. J. Physiol., 274, p. C1521-C1529).
To determine whether antisense transfection with p21^Waf1/Cip1 antisense oligonucleotides indeed decreases p21^Waf1/Cip1 protein levels, p21^Waf1/Cip1 levels after antisense transfection were examined employing the fact that PMA is a potent inducer of p21^Waf1/Cip1 (Huang et al., 1995 Proc. Natl. Acad. Sci. U.S.A., 92, p. 4793-4797; Michieli et al., 1994 Cancer Res., 54, p. 3391-3395). Since p21^Waf1/Cip1 protein levels were induced in VSM cells between 2 and 6 hours after PMA stimulation (FIG. 4), the p21^Waf1/Cip1 levels in transfected cells after similar times of PMA stimulation were examined. […] There was no effect of the p21^Waf1/Cip1 sense (SEQ. ID NO.:2) control oligodeoxynucleotide on cellular p21^Waf1/Cip1 levels (compare with FIG. 4).
To check for specificity of protein inhibition by the antisense p21^Waf1/Cip1 oligodeoxynucleotide (SEQ. ID NO.: 1), protein levels of p21^Waf1/Cip1 and p27^Kip1 after transfection with antisense p21^Waf1/Cip1 oligodeoxynucleotide (SEQ. ID NO.:1) were examined. In these experiments the ability of antisense oligodeoxynucleotides (SEQ. ID NO.:1) to inhibit maximally stimulated CKI expression (see FIG. 4) was assessed. The cells were stimulated with PMA for 4 hours at various times after overnight serum starvation.
Western blots: Cells were grown to confluence in 6 cm culture dishes and serum deprived. After transfection and or treatment with appropriate agonist, conditioned medium was removed and saved and the cells were washed with phosphate-buffered saline and lysed in lysis buffer. Both supernatant and cell lysate were normalized to the lysate protein concentrations and Western blotted as described (Weiss R H, et al. Am J Physiol 274:C1521-C1529, 1998).
To confirm that p21 levels were increased after exposure to ionizing radiation, and that the oligonucleotides inhibit this phenomenon in A10 cells, p21 protein levels under these conditions were assayed. […] With the exception of the initial decrease in p21 levels at ½ and 1 hours, the results with the control oligonucleotides were similar to that observed in non-transfected cells.
Adriamycin is a prototypical DNA damaging agent used in the treatment of a variety of cancers. The predominantly G2 arrest seen after Adriamycin treatment has been associated with an increase in p21 levels in some cell lines (Siu W Y, et al. FEBS Lett 461:299-305, 1999). In order to determine whether similar augmentation of p21 is seen in A10 VSM cells and whether the antisense p21 oligonucleotide is inhibiting this response, these cells were treated with Adriamycin either with or without first transfecting the cells with the antisense and control oligonucleotides. Confluent VSM cells were transfected with antisense oligonucleotide to p21 or random sequence control oligonucleotide as described above. After 24 hours, the cells were exposed to Adriamycin (500 ng/ml), lysed at the indicated times after exposure, and Western blotted with p21 antibody.
Using a random sequence phosphorothioate oligodeoxynucleotide (SEQ. ID NO.:3) as a control, the effect of the antisense oligodeoxynucleotide to p21 (400 nM) on p21 and α-actin protein expression in A10 VSM cells, was examined. The lysates, normalized for protein content, were Western blotted with either p21 or α-actin antibody.

In the oligonucleotide strings, read from the 5' end, every base follows the letter of its sugar. An asterisk marks phosphorothioate; unmarked linkages are phosphodiester. Other units and linkages are bracketed, terminal groups are in braces. A string of capitals states the bases alone. d = 2'-deoxy (DNA)

In the case of “5′-ATC-CCC-AGC-CGG-TTC-TGA-CAT-3′ (antisense ATCCCCAGCCGGTTCTGACAT; listed as DNA, chemistry not fully specified) [antisense p21 ODN]”, the “PARP cleavage (Mr 85,000 product)” value in the series on PARP [1] and in the series on PARP [2] was “marked PARP cleavage” throughout. The “caspase-3 cleavage (activity)” value with caspase-3 is reported as “marked dose-dependent caspase-3 cleavage”.
For 5′-GACATCACCAGGATCGGACAT-3′, the p21 protein level entry in the series with p21^Waf1/Cip1 (A10 VSM cells, 400 nM) was “marked inhibition”. For the same substance, the “p21 levels after ionizing radiation” value in the series with p21^Waf1/Cip1 (A10 VSM cells) was “consistently low”. The “p21^Waf1/Cip1 protein after maximal stimulation with PMA” value in the series on p21^Waf1/Cip1 (A10 VSM cells, PMA for 4 hours) is recorded as “completely inhibited”. In the series on p21^Waf1/Cip1 (A10 VSM cells, PMA stimulation up to 6 hours after transfection), the “PMA-induced p21^Waf1/Cip1 levels” value was “significant attenuation”. For the same substance, in the series with p21^Waf1/Cip1 (transfected VSM cells, Adriamycin 500 ng/ml), the “Adriamycin-induced increase of p21 levels” value is “marked attenuation”.
For the substance “5′-TGG ATC CGA CAT GTC AGA-3′ (dT*dG*dG*dA*dT*dC*dC*dG*dA*dC*dA*dT*dG*dT*dC*dA*dG*dA) [random sequence control oligonucleotide, reference compound]”, the “PARP cleavage (Mr 85,000 product)” value in the series with PARP [1] and in the series with PARP [2] was “proapoptotic effect” throughout. For the same substance, the “caspase-3 cleavage (activity)” value with caspase-3 is on record as “no change”. In addition, the “p21 levels after ionizing radiation” value in the series on p21^Waf1/Cip1 (A10 VSM cells) is listed as “initial slight inhibition”.

Source of the values: patent US20050043262A1, “Novel specific inhibitor of the cyclin kinase inhibitor p21Waf1/Cip1 and methods of using the inhibitor” (priority 2000, published 2005).
